{"source": "paper PMC4052943", "about": "(BioMed Research International, 2014)", "key": {"[1]": {"test_system": "Salmonella typhimurium strains TA97a, TA98, TA100, and TA102", "assay": "Ames test, statements over all tester strains", "description": "(§1) In the preincubation experiment, test compounds and mutagen, each having a volume of 0.1 mL of varying concentrations, were preincubated at 37°C for 30 min and then 0.1 mL of 1 × 10^7 CFU/mL density of the bacterial culture was added, followed by the addition of 2.5 mL of top agar at 45°C (containing 0.5% NaCl and 0.6% agar) supplemented with 0.5 mM histidine-biotin. […] The combined solutions were vortexed and poured onto minimal glucose plates (40% glucose solution and Vogel Bonner medium). The plates were incubated at 37°C for 48 h and the numbers of histidine-independent revertants colonies were scored.\n(§2) Survival of the bacteria was routinely monitored for each experiment. Parallel controls were run with compounds alone at all concentrations to test the possible toxicity. The concentrations of the test samples for investigating the antimutagenicity were 50, 100, 200, and 500 μM. […] All the test samples and mutagens were dissolved in DMSO (final conc., 0.01%). […] Plates were set up in triplicate for each concentration and the entire experiment was repeated three times. Inhibition of mutagenicity was expressed as percentage decrease of reverse mutation and calculated as (1) Percent inhibition=[(a−b)/(a−c)]×100, where a = number of histidine revertants induced by mutagen, b = number of histidine revertants induced by mutagen in the presence of test compound, and c = number of revertants induced in negative control."}, "[2]": {"test_system": "Salmonella typhimurium TA102", "assay": "Ames antimutagenicity assay (preincubation);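 on Number of His+ revertants colonies/plate: compound and mutagen preincubated 30 min at 37 °C before adding bacteria, His+ revertant colonies counted after 48 h at 37 °C, inhibition relative to mutagen-alone minus negative-control revertants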", "settings": "for inhibition at 50 µM / inhibition at 100 µM / inhibition at 250 µM / inhibition at 500 µM: Salmonella enterica, TYPHIMURIUM", "description": "as §1, §2"}, "[3]": {"test_system": "Salmonella typhimurium TA97a", "assay": "Ames antimutagenicity assay (preincubation)", "settings": "Salmonella enterica, TYPHIMURIUM", "description": "as §1, §2"}}, "note": "Like-named read-outs stand apart in the source and are kept apart here."}
{"smiles": "O=C1O[C@H]2[C@@H]3OC(=O)c4cc(O)c(O)c(O)c4-c4c(O)c(O)c5oc(=O)c6c(c(O)c(O)c7oc(=O)c4c5c76)-c4c(cc(O)c(O)c4O)C(=O)OC[C@H]3OC(O)[C@@H]2OC(=O)c2cc(O)c(O)c(O)c2-c2c1cc(O)c(O)c2O", "note": "(mixture of isomers) [Punicalagin]", "values": [{"measurement": "toxicity to Salmonella typhimurium strains", "setting": "[1]; 50–500 μM, absence of S9", "result": "No toxicity"}, {"measurement": "inhibition at 500 µM", "setting": "[1]; Salmonella enterica, TYPHIMURIUM, read-out: inhibition of 2AF- and BP-induced mutagenicity (range over strains)", "result": "76.7 to 85", "unit": "%"}, {"measurement": "mutagenic activity", "setting": "[1]; TA97a, TA98, TA100, TA102, with or without S9, plate incorporation assay", "result": "No mutagenic activity"}, {"measurement": "maximum inhibition of mutagenicity", "setting": "[1]; against sodium azide, MMS, BP, 2AF, 50–500 μM", "result": "up to 90%"}, {"measurement": "inhibition at 50 µM", "setting": "[2]; read-out: % inhibition of mutagenicity, TA 102, 50 μM + 2AF, S9", "result": 38.7, "unit": "%"}, {"measurement": "inhibition at 50 µM", "setting": "[2]; read-out: % inhibition of mutagenicity, TA 102, 50 μM + BP, S9", "result": 15.8, "unit": "%"}, {"measurement": "inhibition at 50 µM", "setting": "[2]; read-out: % inhibition of mutagenicity, TA 102, 50 μM + MMS, no S9", "result": 17.5, "unit": "%"}, {"measurement": "inhibition at 50 µM", "setting": "[2]; read-out: % inhibition of mutagenicity, TA 102, 50 μM + NaN3, no S9", "result": 18, "unit": "%"}, {"measurement": "inhibition at 100 µM", "setting": "[2]; read-out: % inhibition of mutagenicity, TA 102, 100 μM + 2AF, S9", "result": 54.8, "unit": "%"}, {"measurement": "inhibition at 100 µM", "setting": "[2]; read-out: % inhibition of mutagenicity, TA 102, 100 μM + BP, S9", "result": 28, "unit": "%"}, {"measurement": "inhibition at 100 µM", "setting": "[2]; read-out: % inhibition of mutagenicity, TA 102, 100 μM + MMS, no S9", "result": 30.8, "unit": "%"}, {"measurement": "inhibition at 100 µM", "setting": "[2]; read-out: % inhibition of mutagenicity, TA 102, 100 μM + NaN3, no S9", "result": 17.6, "unit": "%"}, {"measurement": "inhibition at 250 µM", "setting": "[2]; read-out: % inhibition of mutagenicity, TA 102, 250 μM + BP, S9", "result": 58.6, "unit": "%"}, {"measurement": "inhibition at 250 µM", "setting": "[2]; read-out: % inhibition of mutagenicity, TA 102, 250 μM + MMS, no S9", "result": 50.8, "unit": "%"}, {"measurement": "inhibition at 250 µM", "setting": "[2]; read-out: % inhibition of mutagenicity, TA 102, 250 μM + NaN3, no S9", "result": 42.2, "unit": "%"}, {"measurement": "inhibition at 500 µM", "setting": "[2]; read-out: % inhibition of mutagenicity, TA 102, 500 μM + 2AF, S9", "result": 81.6, "unit": "%"}, {"measurement": "inhibition at 500 µM", "setting": "[2]; read-out: % inhibition of mutagenicity, TA 102, 500 μM + BP, S9", "result": 76.2, "unit": "%"}, {"measurement": "inhibition at 500 µM", "setting": "[2]; read-out: % inhibition of mutagenicity, TA 102, 500 μM + MMS, no S9", "result": 74.1, "unit": "%"}, {"measurement": "inhibition at 500 µM", "setting": "[2]; read-out: % inhibition of mutagenicity, TA 102, 500 μM + NaN3, no S9", "result": 59.8, "unit": "%"}, {"measurement": "Number of His+ revertants colonies/plate", "setting": "[2]; TA 102, 50 μM + 2AF, S9", "result": "1028.0 ± 21.8", "unit": "colonies/plate"}, {"measurement": "Number of His+ revertants colonies/plate", "setting": "[2]; TA 102, 50 μM + BP, S9", "result": "635.0 ± 23.0", "unit": "colonies/plate"}, {"measurement": "Number of His+ revertants colonies/plate", "setting": "[2]; TA 102, 50 μM + MMS, no S9", "result": "1072.0 ± 10.7", "unit": "colonies/plate"}, {"measurement": "Number of His+ revertants colonies/plate", "setting": "[2]; TA 102, 50 μM + NaN3, no S9", "result": "346.3 ± 23.5", "unit": "colonies/plate"}, {"measurement": "Number of His+ revertants colonies/plate", "setting": "[2]; TA 102, 100 μM + 2AF, S9", "result": "854.0 ± 31.6", "unit": "colonies/plate"}, {"measurement": "Number of His+ revertants colonies/plate", "setting": "[2]; TA 102, 100 μM + BP, S9", "result": "595.0 ± 28.8", "unit": "colonies/plate"}, {"measurement": "Number of His+ revertants colonies/plate", "setting": "[2]; TA 102, 100 μM + MMS, no S9", "result": "942.0 ± 16.2", "unit": "colonies/plate"}, {"measurement": "Number of His+ revertants colonies/plate", "setting": "[2]; TA 102, 100 μM + NaN3, no S9", "result": "341.0 ± 19.1", "unit": "colonies/plate"}, {"measurement": "Number of His+ revertants colonies/plate", "setting": "[2]; TA 102, 250 μM + BP, S9", "result": "496.0 ± 17.4", "unit": "colonies/plate"}, {"measurement": "Number of His+ revertants colonies/plate", "setting": "[2]; TA 102, 250 μM + MMS, no S9", "result": "738.0 ± 14.8", "unit": "colonies/plate"}, {"measurement": "Number of His+ revertants colonies/plate", "setting": "[2]; TA 102, 250 μM + NaN3, no S9", "result": "310.7 ± 16.0", "unit": "colonies/plate"}, {"measurement": "Number of His+ revertants colonies/plate", "setting": "[2]; TA 102, 500 μM + 2AF, S9", "result": "563.0 ± 29.4", "unit": "colonies/plate"}, {"measurement": "Number of His+ revertants colonies/plate", "setting": "[2]; TA 102, 500 μM + BP, S9", "result": "438.0 ± 19.5", "unit": "colonies/plate"}, {"measurement": "Number of His+ revertants colonies/plate", "setting": "[2]; TA 102, 500 μM + MMS, no S9", "result": "509.0 ± 19.7", "unit": "colonies/plate"}, {"measurement": "inhibition at 50 µM", "setting": "[3]; read-out: % inhibition of mutagenicity, TA 97a, 50 μM + 2AF, S9", "result": 15.7, "unit": "%"}, {"measurement": "inhibition at 50 µM", "setting": "[3]; read-out: % inhibition of mutagenicity, TA 97a, 50 μM + BP, S9", "result": 15.1, "unit": "%"}, {"measurement": "inhibition at 50 µM", "setting": "[3]; read-out: % inhibition of mutagenicity, TA 97a, 50 μM + MMS, no S9", "result": 10.2, "unit": "%"}, {"measurement": "inhibition at 50 µM", "setting": "[3]; read-out: % inhibition of mutagenicity, TA 97a, 50 μM + NaN3, no S9", "result": 10.2, "unit": "%"}, {"measurement": "inhibition at 100 µM", "setting": "[3]; read-out: % inhibition of mutagenicity, TA 97a, 100 μM + 2AF, S9", "result": 37.1, "unit": "%"}, {"measurement": "inhibition at 100 µM", "setting": "[3]; read-out: % inhibition of mutagenicity, TA 97a, 100 μM + BP, S9", "result": 34.3, "unit": "%"}, {"measurement": "inhibition at 100 µM", "setting": "[3]; read-out: % inhibition of mutagenicity, TA 97a, 100 μM + MMS, no S9", "result": 19.9, "unit": "%"}, {"measurement": "inhibition at 100 µM", "setting": "[3]; read-out: % inhibition of mutagenicity, TA 97a, 100 μM + NaN3, no S9", "result": 34.2, "unit": "%"}, {"measurement": "inhibition at 250 µM", "setting": "[3]; read-out: % inhibition of mutagenicity, TA 97a, 250 μM + BP, S9", "result": 53.5, "unit": "%"}, {"measurement": "inhibition at 250 µM", "setting": "[3]; read-out: % inhibition of mutagenicity, TA 97a, 250 μM + MMS, no S9", "result": 42.4, "unit": "%"}, {"measurement": "inhibition at 250 µM", "setting": "[3]; read-out: % inhibition of mutagenicity, TA 97a, 250 μM + NaN3, no S9", "result": 54.9, "unit": "%"}, {"measurement": "inhibition at 500 µM", "setting": "[3]; read-out: % inhibition of mutagenicity, TA 97a, 500 μM + 2AF, S9", "result": 78.5, "unit": "%"}, {"measurement": "inhibition at 500 µM", "setting": "[3]; read-out: % inhibition of mutagenicity, TA 97a, 500 μM + BP, S9", "result": 76.7, "unit": "%"}, {"measurement": "inhibition at 500 µM", "setting": "[3]; read-out: % inhibition of mutagenicity, TA 97a, 500 μM + MMS, no S9", "result": 72, "unit": "%"}, {"measurement": "inhibition at 500 µM", "setting": "[3]; read-out: % inhibition of mutagenicity, TA 97a, 500 μM + NaN3, no S9", "result": 74.4, "unit": "%"}]}
